Assay in all cases: Cell death protection, LDH release after RSL3
Common to all, as to format: cell-based

Assay [1] deals with NIH/3T3. Particulars: Mus musculus, NIH3T3, NIH/3T3, RSL3 3 μM, 24 hours. The protocol:
(§1) To confirm the protective effect on cardiac cells, adrenal medulla cells, renal fibroblasts, retinal epithelial cells, lung epithelial cells, renal proximal tubule epithelial cells, hippocampal neurons, and fibroblasts, 4×10^3 to 1.2×10^4 cells of each cell type were dispensed into 96-well plates and cultured for 18 to 24 hours. Each well was treated with the example compound, which was diluted so that the final concentration became 0.001, 0.003, 0.01, 0.03, 0.1, 0.3, 1, 3, and 10 μM, and culture was performed for 15 to 20 minutes. […] To confirm the cell protecting effect of the example compounds, a cytotoxicity LDH assay kit [Dojindo; CK12] was used to measure the level of extracellular secretion of lactate dehydrogenase (LDH). Briefly, at the time point when the 24-hour treatment of each cell type with RSL3 ended, 70 μL of each supernatant from cell culture medium was taken and transferred to a new 96-well plate. After adding 70 μL/well (the same amount as the sample) of the assay buffer included in the kit, the resulting mixture was wrapped with foil and allowed to react at room temperature for 15 to 20 minutes. After observing the color change of the sample, 35 μL/well of a stop solution was added, and the absorbance value at 490 nm was measured using an iD3 spectrophotometer to calculate the EC50 value.
(§2) Table 3. Effect of protecting cardiac cells, adrenal medulla cells, renal fibroblasts, retinal epithelial cells, lung epithelial cells, renal proximal tubule epithelial cells, hippocampal neurons, and fibroblasts against cell death induced by RSL3.

The test system of assay [2] is NRK-49F. The note with it: Rattus norvegicus, RSL3 3 μM, 24 hours. The protocol: as §1, §2
Assay [3] concerns ARPE-19. The note with it: Homo sapiens, ARPE-19, RSL3 0.3 μM, 24 hours. The protocol:
as §1, §2

Assay [4] relates to PC-12. Particulars: Rattus norvegicus, PC-12, RSL3 0.3 μM, 24 hours. The protocol:
as §1, §2

Assay [5] concerns MLE-12. Particulars: MLE12, MLE-12, RSL3 1 μM, 24 hours. The protocol:
as §1, §2

The test system of assay [6] is HK-2. The note with it: Homo sapiens, HK-2, RSL3 0.3 μM, 24 hours. The protocol: as §1, §2
The test system of assay [7] is H9C2. The note with it: Rattus norvegicus, H9C2, RSL3 0.5 μM, 24 hours. On the procedure: as §1, §2
For assay [8], the system named is HT-22. Particulars: Mus musculus, HT-22, RSL3 0.3 μM, 24 hours. On the procedure:
as §1, §2

With `CCOC(=O)c1cc(NC2CCCC2)c2[nH]c(-c3ccccc3)cc2c1` [Example 2, ethyl 7-(cyclopentylamino)-2-phenyl-1H-indole-5-carboxylate], the EC50 in assay [1], in assay [2], in assay [3], in assay [4], in assay [5] and in assay [6] was at most 0.03 µM in each case. Moreover, the EC50 in assay [7] and in assay [8] was at most 0.03 µM in each case.
Take `O=S1(=O)CCN(Cc2cc(NCC3CCOCC3)c3[nH]c(-c4ccccc4)cc3c2)CC1` [Example 6, 4-((2-phenyl-7-(((tetrahydro-2H-pyran-4-yl)methyl)amino)-1H-indol-5-yl)methyl)thiomorpholine 1,1-dioxide]: the EC50 in assay [1] is 0.03 to 0.1 µM; in assay [2], at most 0.03 µM; in assay [3], at most 0.03 µM; in assay [4], 0.03 to 0.1 µM; in assay [5] it was at most 0.03 µM; in assay [6], at most 0.03 µM. Further, the EC50 in assay [7] was at most 0.03 µM; in assay [8], 0.03 to 0.1 µM.
As to `CS(=O)(=O)N1CCC(Nc2cc(CN3CCS(=O)(=O)CC3)cc3cc(-c4ccccc4)[nH]c23)CC1` [Example 22, 4-((7-((1-(methylsulfonyl)piperidin-4-yl)amino)-2-phenyl-1H-indole-5-yl)methyl)thiomorpholine 1,1-dioxide], the EC50 in assay [1] is 0.03 to 0.1 µM; in assay [2] it was 0.03 to 0.1 µM; in assay [3] it was at most 0.03 µM; in assay [4] it was 0.03 to 0.1 µM; in assay [5] it was at most 0.03 µM; in assay [6], 0.03 to 0.1 µM. The 50% effective concentration (EC50) in assay [7] and in assay [8] was 0.03 to 0.1 µM in each case.
Consider `Cc1cc(NC2CCCC2)c2[nH]c(-c3ccccc3)cc2c1` [Example 33, N-cyclopentyl-5-methyl-2-phenyl-1H-indole-7-amine], for which the concentration giving a half-maximal response (EC50) in assay [1] was at most 0.03 µM; in assay [2], at most 0.03 µM; in assay [3] it was at most 0.03 µM; in assay [4], 0.03 to 0.1 µM; in assay [5], at most 0.03 µM; in assay [6], at most 0.03 µM. The EC50 in assay [7] and in assay [8] was at most 0.03 µM throughout.

These data come from patent publication US20240269145A1, “USE OF INDOLE COMPOUND AS INHIBITORS OF FERROPTOSIS” (MITOIMMUNE THERAPEUTICS INC., priority 2023, published 2024).
